Results published in US20180104332A1, “INSULIN-LIKE GROWTH FACTOR INHIBITOR AND CHEMOTHERAPEUTIC AGENT FOR USE IN CANCER THERAPY” (The University of Liverpool, priority 2015, published 2018).

B1: BI 836845: IGF blocking antibody, in phase 1 clinical trials for various solid cancers (antibody, chains of the INN, looked up, V domains shown)
VH: QVELVESGGGLVQPGGSLRLSCAASGFTFTSYWMSWVRQAPGKGLELVSSITSYGSFTYYADSVKGRFTISRDNSKNTLYLQMNSLRAEDTAVYYCARNMYTHFDSWGQGTLVTVSS
VL: DIVLTQPPSVSGAPGQRVTISCSGSSSNIGSNSVSWYQQLPGTAPKLLIYDNSKRPSGVPDRFSGSKSGTSASLAITGLQSEDEADYYCQSRDTYGYYWVFGGGTKLTVL

How the values were obtained:
pancreatic cancer = details: patients diagnosed with pancreatic cancer; cited from earlier work
[1] = system: KPC-derived orthotopic pancreatic tumors; experiment: Syngeneic orthotopic pancreatic cancer model, gemcitabine and IGF blocking antibody BI 836845; assay type: in vivo, mouse; details: for effect on tumor growth (tumor weights): i.p. twice a week for two weeks, gemcitabine 100 mg/Kg, BI 836845 100 mg/Kg, vs control IgG, FIG. 47b
Experimental: FIG. 47 illustrates a combination with gemcitabine with IGF blockade inhibites tumor growth in the syngeneic orthotopic pancreatic cancer model: (a) KPC^luc/zsGreen(zsGreen)-derived pancreatic tumor cells were orthotopically implanted into the pancreas of syngeneic recipient mice, and mice were treated, starting at day 7 after tumor implantation, twice a week i.p., with either control IgG antibody, gemcitabine (100 mg/Kg), IGF blocking antibody BI 836845 (100 mg/Kg) or a combination of gemcitabine with IGF blocking antibody. (b) Representative images of tumors and tumor weights are shown (n=6 mice per group). (c) Pancreatic tumors were digested and percentage of intra- tumoral F4/80+ macrophages, Ly6C+/Ly6G− inflammatory monoctyes, Gr1+/CD11b+ neutrophils and myeloid derived suppressor cells (MDSCs) and CD8+ cytotoxic T cells (CTCs), among CD45+ immune cells, were quantified by flow cytometry (n=3). (d) Percentage of intra-tumoral CD206− M1-like macrophages and CD206+M2-like macrophages, among F4/80+ macrophages, were quantified by flow cytometry (n=3). […] (f) Quantification of cleaved caspase-3 positive apoptotic cells in PDA tumors treated with IgG (control), gemcitabine, IGF blocking antibody BI 836845 or gemcitabine+BI 836845 (n=6 fields counted).
All animal experiments were performed in accordance with current UK legislation under an approved project licence (reference number: 403725). […] Tumor tissues were analyzed by immunohistochemical and immunofluorescent staining for phospho-lnsulin/IGFR expression, EpCAM expression, macrophage infiltration, fibroblast activation and apoptosis using the following antibodies: phospho-insulin/IGF receptor antibody (R&D), EpCAM (BD Pharmingen), CD68 antibody (DAKO), CD206 (abcam), αSMA (abcam) and cleaved caspase 3 (Cell signaling). Expression of IGF-1, IGF-2, Arginase, IL-10, IFNγ and IL-12 in intra-tumoral isolated macrophages were determined by qPCR. […]

[2] = system: Suit-2 and KPC-derived pancreatic cancer cells; experiment: Cell death by flow cytometry (annexinV/PI) under chemotherapy with MCM, IGF blocking antibody or recombinant IGF; assay type: cell-based; details: recombinant IGF 100 ng/ml, 24 hours, FIGS. 30-32
Experimental: FIG. 29 illustrates quantification of cell death in Suit-2 cells treated with gemcitabine, MCM and IGF blocking antibody for 24 hours. Error bars represent s.d. (n=3); **two tailed p value≤0.01, *two tailed p value≤0.05 using a student's t-test.
FIG. 30 illustrates primary mouse KPC-derived pancreatic cancer cells were untreated or treated with gemcitabine, MCM, IGF blocking antibody or recombinant IGF for 24 hours and percentage of cell death was quantified by flow cytometry. Error bars represent s.d. (n=3); **two tailed p value≤0.01 using a student's t-test.
FIG. 32 illustrates KPC-derived cells which were cultured in the presence or absence of MCM or recombinant IGF and treated with 100 or 1000 nM nab-paclitaxel for 24 hours. Percentage of cell death was quantified by flow cytometry. Error bars represent s.d. (n=3); *two tailed p value≤0.05 using a student's t-test.
Suit-2 and KPC cells were cultured in serum free or DMEM with 2% FBS respectively, pretreated for 3 h with human or mouse macrophage conditioned media respectively, and IGF-1 IgG blocking antibody (abcam 9572) at 10 μg/ml or IgG antibody as control, followed by Gemcitabine at 200 nM. Cells were harvested after 24 hours, and subjected to flow cytometry. […] Apoptosis was evaluated by flow cytometry (FACS Calibur, Becton Dickinson). […]

[3] = system: MDA-MB-231 breast cancer cells; experiment: Cell death by flow cytometry under nab-paclitaxel with MCM or recombinant IGF; assay type: cell-based, human; details: recombinant IGF 100 ng/ml; 500 nM nab-paclitaxel, 48 hours; FIG. 33
Experimental: FIG. 33 illustrates human breast MDA-MB-231 cancer cells cultured in the presence or absence of MCM or recombinant IGF and treated with 500 nM nab-paclitaxel for 48 hours. Percentage of cell death was quantified by flow cytometry. Error bars represent s.d. (n=3); *two tailed p value≤0.05, **two tailed p value≤0.01 using a student's t-test.
MDA-MB-231 cells were pretreated for 3 hours with human macrophage derived factors (MDF) or recombinant IGF (100 ng/ml) followed by 500 nM of nab-paclitaxel.

[4] = system: Suit-2 and KPC derived pancreatic cancer cells; experiment: Cell death and cell cycle analysis of cancer cells treated with the agents alone; assay type: cell-based, human, mouse; details: no chemotherapy; antibody 10 μg/ml, recombinant IGF 100 ng/ml; FIGS. 52 and 53
Experimental: FIG. 52 illustrates quantification of cell death in Suit-2 cells exposed to 200 nM gemcitabine, MCM and/or IGF blocking antibody (10 μg/ml). Error bars represent s.d. (n=3); **two tailed p value≤0.01 using a student's t-test.
FIG. 53 illustrates cell cycle analysis of primary mouse KPC derived pancreatic cancer cells exposed to MCM, IGF blocking antibody ([…]) or recombinant IGF (100 ng/ml).
KPC derived pancreatic cancer cells were treated with isogenic mouse MDFs, IGF1/2 blocking antibody (abcam 9572) at 10 μg/ml or recombinant IGF (Peprotech 100-11) at 100 ng/ml. Cells were harvested, fixed with methanol, treated for 45 min with 10 μg/ml of RNase, resuspended in PBS containing 10 μg/ml of propidium iodide and subjected to flow cytometry.

Insulin/IGF receptor = experiment: Immunoblotting of Insulin/IGF receptor signalling in cancer cells; assay type: cell-based, human, mouse; details: Suit-2, KPC-derived and Py230 cells, 3 hours; FIG. 27
Experimental: FIG. 27 illustrates Immunoblot analysis of phospho-lnsulin/IGF receptor, phospho-Insulin receptor, Insulin receptor, phospho- IGF receptor 1, IGFR1 and tubulin, in human pancreatic cancer Suit-2 cells, murine primary KPC pancreatic cancer and
Py230 breast cancer derived cells, serum starved, exposed to MCM or exposed to recombinant IGF for 3 hours.
FIG. 28 illustrates that blockade of IGF impairs macrophage-mediated activation of Insulin/IGF receptor and downstream signalling molecules IRS1, IRS2 and AKT in cancer cells by Immunoblotting analysis of Suit-2 cells untreated or treated with MCM or MCM+IGF blocking antibody for 3 hours.
Cells were serum starved or treated with macrophage conditioned media for 30 min, 2 h or 3 h, harvested and lysed in RIPA buffer (150 mM NaCl, 10 mM Tris-HCl pH 7.2, 0.1% SDS, 1% Triton X-100, 5 mM EDTA) supplemented with a complete protease inhibitor mixture (SIGMA), a phosphatase inhibitor cocktail (Invitrogen), 1 mM PMSF and 0.2 mM Na3VO4. Cell lysates (300 μg) were analyzed with the Human Phospho-RTK Array Kit (R&D Systems). Protein samples were resuspended in 4xLaemmli sample buffer, and immunoblotting was performed on nitrocellulose membranes blocked in 5% BSA or milk (depending on the antibody) in Tris-buffered saline Tween-20 (TBST). […]

Molecule	patients treated with gemcitabine who die within 5 years of commencing treatment (pancreatic cancer)	effect on tumor growth (tumor weights) [1]	resistance of pancreatic cancer cells to gemcitabine and nab-paclitaxel [2]	resistance of breast cancer cells to nab-paclitaxel [3]	survival or proliferation of cancer cells, agent alone [4]	Insulin/IGFR signaling in pancreatic and breast cancer cells (Insulin/IGF receptor)	phospho-Insulin/IGFR expression in tumors ([1]; immunohistochemical analysis, FIG. 47e)
Nc1ccn([C@@H]2O[C@H](CO)[C@@H](O)C2(F)F)c(=O)n1 [gemcitabine]	95%	no effect					
recombinant IGF: recombinant IGF (Peprotech 100-11) used at 100 ng/ml			sufficient to mediate resistance	sufficient to mediate resistance	did not alter the survival or proliferation	activates Insulin/IGFR signaling	
B1		modest effect					decreased
